In assay [1] the target is T1, Aβ1-40 (Homo sapiens, UniProt P05067). Briefly: Seeded extension assay (thioflavin T fluorescence). In kind it is biochemical. More on the design: Natural β-AP (β-AP1-40) was obtained commercially from Bachem (Torrance, Calif.); purchased Bachem (Torrance, Calif.). The conditions noted are these: Table V; 25 mole % inhibitor. The procedure: The seeded extension assay can be employed to measure the rate of Aβ fiber formed in a solution of Aβ monomer following addition of polymeric Aβ fiber "seed". The ability of test compounds to prevent further deposition of monomeric Aβ to previously deposited amyloid is determined using a direct indicator of β-sheet formation using fluorescence. In contrast with the nucleation assay, the addition of seed provides immediate nucleation and continued growth of preformed fibrils without the need for continuous mixing, and thus results in the absence of a lag time before polymerization starts. Since this assay uses static polymerization conditions, the activity of positive compounds in the nucleation assay can be confirmed in this second assay under different conditions and with an additional probe of amyloid structure.
Samples of the solution are then diluted in thioflavin T (Th-T). The polymer-specific association of Th-T with Aβ produces a fluorescent complex that allows the measurement of the extent of fibril formation (Levine, H. (1993) Protein Science 2:404-410). In particular, association of Th-T with aggregated β-AP, but not monomeric or loosely associated β-AP, gives rise to a new excitation (ex) maximum at 450 nm and an enhanced emission (em) at 482 nm, compared to the 385 nm (ex) and 445 nm (em) for the free dye. Small aliquots of the polymerization mixture contain sufficient fibril to be mixed with Th-T to allow the monitoring of the reaction mixture by repeated sampling. A linear growth curve is observed in the presence of excess monomer. The formation of thioflavin T responsive β-sheet fibrils parallels the increase in turbidity observed using the nucleation assay.
To prepare the stock seed, 1 ml of the Aβ monomer preparation, is incubated for approximately 8 days at 37° C. and sheared sequentially through an 18, 23, 26 and 30 gauge needle 25, 25, 50, and 100 times respectively. 2 μl samples of the sheared material is taken for fluorescence measurements after every 50 passes through the 30 gauge needle until the fluorescence units (FU) plateau (approx. 100-150×). Test compounds are prepared by dissolving an appropriate amount of test compound in 1× PBS to a final concentration of 1 mM (10× stock). If insoluble, the compound is dissolved in 1/10 volume of DMSO and diluted in 1× PBS to 1 mM. A further 1/10 dilution is also prepared to test each candidate at both 100 μM and 10 μM.
To perform the seeded extension assay, each sample is set up with 50 μl of 200 μM monomer, 125 FU sheared seed (a variable quantity dependent on the batch of seed, routinely 3-6 μl) and 10 μl of 10× modulator solution. The sample volume is then adjusted to a final volume of 100 μl with 1× PBS. Two concentrations of each modulator typically are tested: 100 μM and 10 μM, equivalent to a 1:1 and a 1:10 molar ratio of monomer to modulator. The controls include an unseeded reaction to confirm that the fresh monomer contains no seed, and a seeded reaction in the absence of any modulators, as a reference to compare against candidate modulators. The assay is incubated at 37° C. for 6 h, taking 2 μl samples hourly for fluorescence measurements. To measure fluorescence, a 2 μl sample of Aβ is added to 400 μl of Thioflavin-T solution (50 mM Potassium Phosphate […] pH 7.5). The samples are vortexed and the fluorescence is read in a 0.5 ml micro quartz cuvette at EX 450 nm and EM 482 nm (Hitachi 4500 Fluorimeter).
The modulators were evaluated in the nucleation and seeded extension assays described in Example 6 and the results are summarized below in Table V. The change in lag time (ΔLag) is presented as the ratio of the lag time observed in the presence of the test compound to the lag time of the control. […] Inhibition (% Inucl'n) is listed as the percent reduction in the maximum observed turbidity in the control at the end of the assay time period. […]

The target of assay [2] is T1, Aβ1-40. Put plainly: biochemical. As to conditions: read-out: % Inucl'n (percent reduction in maximum turbidity).
Excerpt: (§1) The nucleation assay is employed to determine the ability of test compounds to alter (e.g. inhibit) the early events in formation of β-AP fibers from monomeric β-AP. […] The time delay before polymerization of β-AP monomer can be quantified as well as the extent of formation of insoluble fiber by light scattering (turbidity). Polymerization reaches equilibrium when the maximum turbidity reaches a plateau. […] The threshold of sensitivity for the measurement of turbidity is in the range of 15-20 μM β-AP. […] This assay can be performed using stirring or shaking to accelerate polymerization, thereby increasing the speed of the assay. Moreover the assay can be adapted to a 96-well plate format to screen multiple compounds.
(§2) HFIP-solubilized peptide is sonicated in a waterbath sonicator for 5 min at highest setting, then evaporated to dryness under a stream of argon. […] Test compounds are dissolved in DMSO at a 100× concentration. […] Ten microliters of the mixture is then added to the bottom of a well of a Corning Costar ultra low binding 96-well plate (Corning Costar, Cambridge Mass.; cat. No. 2500). […] The plate is then returned to the shaker and shaken continuously for 5 hours. Turbidity readings are taken at 15 minute intervals.
(§3) Accordingly a fold increase in lag time of 1.0 indicates no change in lag time, whereas numbers >1.0 indicate an increase in lag time. The "% inhibition of plateau", which is a measure of the ability of the compound to decrease the total amount of aggregation, refers to the reduction of the final turbidity in the presence of the test compound expressed as a percent of the control without the test compound.
Assay [3] has as its target T1, Aβ1-40. The conditions noted are these: for ΔLag (ratio of lag time with test compound to lag time of control): Table V, 100 mole % inhibitor relative to Aβ1-40.
Excerpt: as §1, §2, §3

We go through 16 molecules from patent publication US5854204A, “Aβ peptides that modulate β-amyloid aggregation” (priority 1996, dated 1998).

SMILES strings stand for the structures. Peptide text beside a SMILES is read from it. * marks the point of attachment. Cholyl = C[C@H](CCC(=O)*)[C@H]1CC[C@H]2[C@@H]3[C@H](O)C[C@@H]4C[C@H](O)CC[C@]4(C)[C@H]3C[C@H](O)[C@]12C
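Wherever % Inhibition of Plateau is given: Aβ nucleation assay tracking fiber polymerization from monomer by turbidity (light scattering), shaken continuously in 96-well plates, read every 15 min over 5 h, compared with compound-free control.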
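Wherever Fold Increase in Lag Time is given: Aβ nucleation assay tracking fiber polymerization from monomer by turbidity (light scattering), shaken continuously in 96-well plates, read every 15 min over 5 h, compared with compound-free control.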
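Wherever ΔLag (ratio of lag time with test compound to lag time of control) is given: Aβ nucleation assay tracking fiber polymerization from monomer by turbidity (light scattering), shaken continuously in 96-well plates, read every 15 min over 5 h, compared with compound-free control.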

T1 sequence (P05067 672-711): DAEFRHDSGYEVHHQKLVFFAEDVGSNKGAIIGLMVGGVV

Take `CC(C)C[C@H](NC(=O)[C@H](CCCCN)NC(=O)CC[C@@H](C)[C@H]1CC[C@H]2[C@@H]3[C@H](O)C[C@@H]4C[C@H](O)CC[C@]4(C)[C@H]3C[C@H](O)[C@]12C)C(=O)N[C@H](C(=O)N[C@@H](Cc1ccccc1)C(=O)N[C@@H](Cc1ccccc1)C(N)=O)C(C)C` [PPI-319, cholyl-Aβ16-20-amide]: at Aβ1-40 [1], the “% Iext'n (percent reduction of thioflavin-T fluorescence)” value was found to be 52%. Besides, on Aβ1-40 [2], the inhibition at 100 % was found to be 70%. Besides, at Aβ1-40 [3], the “% Inhibition of Plateau” value was ~ 0%.
On the same counts, the results for `C[C@H](NC(=O)[C@H](C)NC(=O)[C@H](C)NC(=O)[C@H](C)NC(=O)[C@H](C)NC(=O)CC[C@@H](C)[C@H]1CC[C@H]2[C@@H]3[C@H](O)C[C@@H]4C[C@H](O)CC[C@]4(C)[C@H]3C[C@H](O)[C@]12C)C(=O)O` [PPI-365, Cholyl-penta-alanine, reference compound] are 0%, -7% and ~ 0%.
On the same counts, the results for `CC(C)C[C@H](NC(=O)CC[C@@H](C)[C@H]1CC[C@H]2[C@@H]3[C@H](O)C[C@@H]4C[C@H](O)CC[C@]4(C)[C@H]3C[C@H](O)[C@]12C)C(=O)N[C@H](C(=O)N[C@@H](Cc1ccccc1)C(=O)N[C@@H](Cc1ccccc1)C(=O)N[C@@H](C)C(=O)O)C(C)C` [PPI-368, cholyl-Aβ17-21] are 91%, 100% and 100%.
Regarding `CC(C)C[C@H](NC(=O)[C@@H](N)CCCCN)C(=O)N[C@H](C(=O)N[C@@H](Cc1ccccc1)C(=O)N[C@@H](Cc1ccccc1)C(=O)O)C(C)C` [PPI-377, Aβ16-20], the “% Iext'n (percent reduction of thioflavin-T fluorescence)” value on Aβ1-40 [1] is reported as 8%. For the same molecule, the inhibition at 100 % at Aβ1-40 [2] stood at 0%. Moreover, on Aβ1-40 [3] (Table IV, 100 mole %), the “Fold Increase in Lag Time” value was ~ 1 fold. Besides, the “ΔLag (ratio of lag time with test compound to lag time of control)” value on Aβ1-40 [3] worked out at 1.1.
Consider `CC(C)C[C@H](N)C(=O)N[C@H](C(=O)N[C@@H](Cc1ccccc1)C(=O)N[C@@H](Cc1ccccc1)C(=O)N[C@@H](C)C(=O)O)C(C)C` [PPI-386], for which the “% Iext'n (percent reduction of thioflavin-T fluorescence)” value on Aβ1-40 [1] amounted to 11%. For the same molecule, the inhibition at 100 % at Aβ1-40 [2] was 15%. Moreover, the “ΔLag (ratio of lag time with test compound to lag time of control)” value on Aβ1-40 [3] came out at 1.0.
As to `CC(C)[C@H](NC(=O)[C@H](C)NC(=O)CC[C@@H](C)[C@H]1CC[C@H]2[C@@H]3[C@H](O)C[C@@H]4C[C@H](O)CC[C@]4(C)[C@H]3C[C@H](O)[C@]12C)C(=O)N[C@@H](Cc1ccccc1)C(=O)N[C@@H](Cc1ccccc1)C(=O)N[C@@H](C)C(=O)O` [PPI-388] (Cholyl-AVFFA-OH), the “% Iext'n (percent reduction of thioflavin-T fluorescence)” value on Aβ1-40 [1] worked out at 44%. Also, the inhibition at 100 % at Aβ1-40 [2] is 68%.
On the same counts, the results for `CC(C)C[C@H](NC(=O)CC[C@@H](C)[C@H]1CC[C@H]2[C@@H]3[C@H](O)C[C@@H]4C[C@H](O)CC[C@]4(C)[C@H]3C[C@H](O)[C@]12C)C(=O)N[C@@H](C)C(=O)N[C@@H](Cc1ccccc1)C(=O)N[C@@H](Cc1ccccc1)C(=O)N[C@@H](C)C(=O)O` [PPI-389] (Cholyl-LAFFA-OH) are 66% and 47%.
On the same counts, the results for `CC(C)C[C@H](NC(=O)CC[C@@H](C)[C@H]1CC[C@H]2[C@@H]3[C@H](O)C[C@@H]4C[C@H](O)CC[C@]4(C)[C@H]3C[C@H](O)[C@]12C)C(=O)N[C@H](C(=O)N[C@@H](C)C(=O)N[C@@H](Cc1ccccc1)C(=O)N[C@@H](C)C(=O)O)C(C)C` [PPI-390] (Cholyl-LVAFA-OH) are 0% and 25%.
Turning to `CC(C)[C@H](NC(=O)CC[C@@H](C)[C@H]1CC[C@H]2[C@@H]3[C@H](O)C[C@@H]4C[C@H](O)CC[C@]4(C)[C@H]3C[C@H](O)[C@]12C)C(=O)N[C@@H](Cc1ccccc1)C(=O)N[C@@H](Cc1ccccc1)C(=O)N[C@@H](C)C(=O)O` [PPI-392] (Cholyl-VFFA-OH), the “% Iext'n (percent reduction of thioflavin-T fluorescence)” value on Aβ1-40 [1] is listed as 10%. The inhibition at 100 % at Aβ1-40 [2] amounted to 76%.
On the same counts, the results for `CC(C)C[C@H](NC(=O)CC[C@@H](C)[C@H]1CC[C@H]2[C@@H]3[C@H](O)C[C@@H]4C[C@H](O)CC[C@]4(C)[C@H]3C[C@H](O)[C@]12C)C(=O)N[C@H](C(=O)N[C@@H](Cc1ccccc1)C(=O)O)C(C)C` [PPI-393] are 0% and 1%.
On the same counts, the results for `CC(C)[C@H](NC(=O)CC[C@@H](C)[C@H]1CC[C@H]2[C@@H]3[C@H](O)C[C@@H]4C[C@H](O)CC[C@]4(C)[C@H]3C[C@H](O)[C@]12C)C(=O)N[C@@H](Cc1ccccc1)C(=O)N[C@@H](Cc1ccccc1)C(=O)O` [PPI-394] are 0% and 55%.
On the same counts, the results for `C[C@H](NC(=O)[C@H](Cc1ccccc1)NC(=O)[C@H](Cc1ccccc1)NC(=O)CC[C@@H](C)[C@H]1CC[C@H]2[C@@H]3[C@H](O)C[C@@H]4C[C@H](O)CC[C@]4(C)[C@H]3C[C@H](O)[C@]12C)C(=O)O` [PPI-395] are 6% and 51%.
In the case of `CC(C)C[C@H](NC(=O)CC[C@@H](C)[C@H]1CC[C@H]2[C@@H]3[C@H](O)C[C@@H]4C[C@H](O)CC[C@]4(C)[C@H]3C[C@H](O)[C@]12C)C(=O)N[C@H](C(=O)N[C@@H](Cc1ccccc1)C(=O)N[C@@H](Cc1ccccc1)C(=O)N[C@@H](CCCCN)C(=O)O)C(C)C` [PPI-407] (Cholyl-LVFFK-OH), the “% Iext'n (percent reduction of thioflavin-T fluorescence)” value on Aβ1-40 [1] is recorded as 85%. The inhibition at 33 % at Aβ1-40 [2] is 100%.
For `CC(C)C[C@H](NC(=O)[C@@H](NC(=O)[C@H](Cc1ccccc1)NC(=O)[C@H](Cc1ccccc1)NC(=O)CC[C@@H](C)[C@H]1CC[C@H]2[C@@H]3[C@H](O)C[C@@H]4C[C@H](O)CC[C@]4(C)[C@H]3C[C@H](O)[C@]12C)C(C)C)C(=O)N[C@@H](C)C(=O)O` [PPI-426] (Cholyl-FFVLA-OH), the “% Iext'n (percent reduction of thioflavin-T fluorescence)” value on Aβ1-40 [1] is recorded as 89%. Besides, at Aβ1-40 [2], the inhibition at 100 % is 100%.
On the same counts, the results for `CC(C)[C@H](NC(=O)[C@H](Cc1ccccc1)NC(=O)[C@H](Cc1ccccc1)NC(=O)CC[C@@H](C)[C@H]1CC[C@H]2[C@@H]3[C@H](O)C[C@@H]4C[C@H](O)CC[C@]4(C)[C@H]3C[C@H](O)[C@]12C)C(=O)O` [PPI-429] are 7% and -33%.
On the same counts, the results for `CC(C)C[C@H](NC(=O)[C@@H](NC(=O)[C@H](Cc1ccccc1)NC(=O)[C@H](Cc1ccccc1)NC(=O)CC[C@@H](C)[C@H]1CC[C@H]2[C@@H]3[C@H](O)C[C@@H]4C[C@H](O)CC[C@]4(C)[C@H]3C[C@H](O)[C@]12C)C(C)C)C(=O)O` [PPI-430] (Cholyl-FFVL-OH) are 75% and 33%.
